{"source": "patent US20220378811A1", "about": "“VENETOCLAX DOSING REGIMENS FOR USE IN TREATING MYELODYSPLASTIC SYNDROMES IN COMBINATION WITH AZACITIDINE” (ABBVIE INC., priority 2021, published 2022)", "assay": "Phase 1b study in previously untreated higher-risk MDS: dose administration, dose reductions and cycle delays in SE1 and SE2", "type": "in vivo, human", "conditions": "for # of reductions in Venetoclax duration: reductions due to hematologic toxicity", "procedure": "Responses were evaluated using IWG 2006 criteria.\nSubjects who initiate a cycle of treatment with neutropenia, absolute neutrophil count <1.5×10^9/L, or thrombocytopenia, platelets <75×10^9/L, may be especially sensitive to cytopenias due to abnormal hematopoiesis resulting from the underlying […]. […] However, subjects who initiate a cycle of treatment with absolute neutrophil count 1.5×10^9/L and platelets 75×10^9/L and have a previous response of complete remission, partial remission, or marrow complete remission may require dose reduction, if subsequent absolute neutrophil count nadir <0.500×10^9/L, or platelets nadir <50×10^9/L, if baseline was >100×10^9/L, or platelets <50% if baseline was ≤100×10^9/L.", "data": [{"smiles": "CC1(C)CCC(CN2CCN(c3ccc(C(=O)NS(=O)(=O)c4ccc(NCC5CCOCC5)c([N+](=O)[O-])c4)c(Oc4cnc5[nH]ccc5c4)c3)CC2)=C(c2ccc(Cl)cc2)C1", "note": "[Venetoclax, 4-(4-{[2-(4-chlorophenyl)-4,4-dimethylcyclohex-1-en-1-yl]methyl}piperazin-1-yl)-N-({3nitro-4-[(tetrahydro-2H-pyran-4-ylmethyl)amino]phenyl}sulfonyl)-2-(1H-pyrrolo[2,3-b]pyridin5-yloxy)benzamide]", "values": [{"measurement": "Venetoclax dose delay by end of Cycle 2, Median # days", "setting": "SE1, n = 22", "result": 7.5, "unit": "days"}, {"measurement": "Venetoclax dose delay by end of Cycle 3, Median # days", "setting": "SE1, n = 22", "result": 14, "unit": "days"}, {"measurement": "Venetoclax dose delay by end of Cycle 4, Median # days", "setting": "SE1, n = 22", "result": 17, "unit": "days"}, {"measurement": "Venetoclax dose delay by end of Cycle 5, Median # days", "setting": "SE1, n = 22", "result": 14, "unit": "days"}, {"measurement": "Venetoclax dose delay by end of Cycle 6, Median # days", "setting": "SE1, n = 22", "result": 7, "unit": "days"}, {"measurement": "# of reductions in Venetoclax duration", "setting": "SE1, n = 22", "result": "3 (14)"}, {"measurement": "Venetoclax dose delay by end of Cycle 2, Median # days", "setting": "SE2, n = 21", "result": 8, "unit": "days"}, {"measurement": "Venetoclax dose delay by end of Cycle 3, Median # days", "setting": "SE2, n = 21", "result": 8.5, "unit": "days"}, {"measurement": "Venetoclax dose delay by end of Cycle 4, Median # days", "setting": "SE2, n = 21", "result": 9, "unit": "days"}, {"measurement": "Venetoclax dose delay by end of Cycle 5, Median # days", "setting": "SE2, n = 21", "result": 14, "unit": "days"}, {"measurement": "Venetoclax dose delay by end of Cycle 6, Median # days", "setting": "SE2, n = 21", "result": 14, "unit": "days"}, {"measurement": "# of reductions in Venetoclax duration", "setting": "SE2, n = 21", "result": 0}]}]}
